This note sets out measurements from patent US11613533B2, “Compounds useful for inhibiting RET kinase” (Eli Lilly and Company, priority 2020, dated 2023).

Assay [1] addresses T1, KIF5B-RET WT in HEK293 cells (Homo sapiens, UniProt P07949).
T1 construct: expressed in transfected cells; host or cells: HEK293; the other entry of the earlier key: KIF5B (P33176, Kinesin-1 heavy chain)
T1 sequence (P07949 713-1063 limits assumed): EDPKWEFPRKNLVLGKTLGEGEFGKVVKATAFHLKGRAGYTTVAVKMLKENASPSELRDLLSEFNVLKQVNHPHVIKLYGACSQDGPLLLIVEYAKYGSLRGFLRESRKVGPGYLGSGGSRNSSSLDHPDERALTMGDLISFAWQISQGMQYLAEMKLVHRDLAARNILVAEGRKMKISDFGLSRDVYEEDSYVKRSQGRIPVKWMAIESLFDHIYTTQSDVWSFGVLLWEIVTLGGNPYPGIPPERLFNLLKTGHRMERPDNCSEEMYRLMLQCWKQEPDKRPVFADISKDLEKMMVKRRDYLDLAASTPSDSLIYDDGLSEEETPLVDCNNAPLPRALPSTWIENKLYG
Nature of the assay: RET cell assay (In-Cell Western, phospho-RET Y1062), wildtype. It counts as cell-based. Conditions: HEK293, doxycycline-induced KIF5B-RET WT, 1 hr compound treatment; read-out: EC50, inhibition of intracellular autophosphorylation of RET at tyrosine 1062, wildtype cells. The procedure:
Compounds of formulas (I), (II), and (III) are screened for their ability to inhibit the intracellular autophosphorylation of RET at tyrosine 1062 as detected by In-Cell Western. HEK293 cells containing a doxycycline-inducible plasmid for inducible expression of KIF5B-RET WT and RET mutant forms V804M and G810S are seeded at 25,000 cells/well into black poly-D-lysine pre-coated 384-well plates (Corning, Catalog No. 356697). Expression of KIF5B-RET is induced with doxycycline at 1 μg/mL and cells are incubated at 37° C. overnight. Compounds are prepared in a threefold serial dilution in DMSO before further diluting 1:100 in media prior to the addition to the cells (0.1% final DMSO concentration). Compound treatment is performed for 1 hr at 37° C. followed by fixation of cells with 4% formaldehyde for 20 min at RT and cell permeabilisation with ice-cold MeOH for 10 min at RT. Cells are incubated with Intercept® blocking buffer (Li—COR, Catalogue No. 927-70010) for 1 hr at RT. Incubation with primary antibodies against human phospho-RET (Y1062) (R&D, Catalogue No. AF5009, 1/250 dilution) and human glyceraldehyde-3-phosphate dehydrogenase (clone 6C5, Merck, Catalog No. MAB374, 1/1000 dilution) are performed overnight at 4° C. Incubation with secondary antibodies IRDye® 800CW goat anti-rabbit IgG (Li—COR, Catalogue No. 926-32211, 1/1000 dilution) and IRDye® 680CW goat anti-mouse IgG (Li—COR, Catalogue No. 926-68070, 1/1000 dilution) are performed for 1 hr at RT. All antibody dilutions are done in Intercept® blocking buffer containing 0.05% Tween20. After washing cells with PBS-T (Cell Signaling technology, Catalogue No. 9809), the images are acquired on a Li—COR Odyssey LCx at 700 and 800 nm. Percent of DMSO control is calculated with 100% signal referring to control conditions containing no compound (0.4% DMSO only) and 0% signal represented by conditions containing control compound. The % of DMSO control values are fit to a 4 parameter logistic curve, and the determined EC50 value is defined as the estimated concentration of inhibitor at the inflexion point of the fitted curve.

The target in assay [2] is T2, G810S mutant RET kinase (N-Terminal GST-tagged recombinant human G810S, aa-658-end) (Homo sapiens, UniProt P07949, G810S).
T2 construct: recombinant human G810S (aa-658-end); GST (N); made in house; host or cells: insect cells
T2 sequence (P07949 658-1114 G810S limits assumed): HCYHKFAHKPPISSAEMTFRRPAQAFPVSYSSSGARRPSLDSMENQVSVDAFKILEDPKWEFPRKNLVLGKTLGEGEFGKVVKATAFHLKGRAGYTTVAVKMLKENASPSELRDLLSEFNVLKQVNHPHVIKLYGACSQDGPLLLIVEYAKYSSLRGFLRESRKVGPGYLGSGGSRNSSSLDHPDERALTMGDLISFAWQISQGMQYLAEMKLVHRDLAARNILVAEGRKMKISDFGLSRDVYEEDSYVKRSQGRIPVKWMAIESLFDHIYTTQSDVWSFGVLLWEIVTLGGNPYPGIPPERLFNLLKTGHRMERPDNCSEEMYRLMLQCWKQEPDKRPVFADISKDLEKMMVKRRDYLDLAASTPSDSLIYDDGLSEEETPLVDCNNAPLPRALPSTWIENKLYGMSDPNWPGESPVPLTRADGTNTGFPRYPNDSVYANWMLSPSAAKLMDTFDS
Nature of the assay: RET enzyme assay (HTRF KinEASE TK), G810S. Type of assay: biochemical. The following applies: 1 mM ATP, 60 min incubation at 22° C. How it is done:
Assay A: RET Enzyme Assay
Compounds of formulas I, II, or III are screened for their ability to inhibit wildtype, V804M, and G810S mutant RET kinase using CisBio's HTRF® KinEASE™TK assay technology. N-terminal GST tagged recombinant human RET cytoplasmic domain (aa 658-end) from Eurofins ([…]; Catalog No. 14-570M) or N-terminal GST tagged recombinant human V804M mutant RET cytoplasmic domain (aa 658-end) from Millipore (1.25 nM enzyme; Catalog No. 14-760) or N-Terminal GST-tagged recombinant human G810S (aa-658-end) (1.25 nM Enzyme; produced in insect cells) is incubated with 62.5 nM TK-substrate biotin (CisBio, part of Catalog No. 62TK0PEC) and 1 mM ATP along with test compound (0.4% final DMSO in the assay) in a 1× Cisbio enzymatic buffer consisting of […], 5 mM MgCl2, 0.04% BSA and 0.05% Tween20 in a volume of 10 μL. Compounds are typically prepared in a threefold serial dilution in DMSO and added to the assay to give the appropriate final concentration. After a 40-60 min (40 min for V804M, 60 min for WT and G810S) incubation at 22° C., the reaction is quenched by adding quench solution (10 μL) containing 7.8 nM Streptavidine-XL665 and 0.5×TK-ab-Cryptate in HTRF detection buffer (all from CisBio, part of Cat. No. 62TK0PEC). After a 60-80 min incubation (60 minutes for WT, 80 minutes for V804M and G810S) at 22° C., the extent of reaction is determined using a PHERastar plate reader via HTRF detection at excitation/emission 337/665 nm. Percent of inhibition is calculated with 0% inhibition referring to control conditions containing no compound (0.4% DMSO only) and 100% inhibition represented by conditions containing no enzyme. The % inhibition values are fit to a 4 parameter logistic curve, and the determined IC50 value is defined as the estimated concentration of inhibitor at the inflexion point of the fitted curve.
(In TR-FRET formats the signal depends on donor and acceptor labels being close together.)

Usually EC50 stands for the concentration at which the effect is half-maximal. In general, IC50 refers to the midpoint of a concentration-inhibition curve. With `CC(C(=O)Nc1cc(C(C)(C)C)sn1)c1ccc(-c2nn(C(C)C)c(N)c2C(N)=O)cc1` (single isomer, unassigned; isomer 2) [Example 80, 5-Amino-3-(4-[1-[(5-tert-butyl-1,2-thiazol-3-yl)carbamoyl]ethyl]phenyl)-1-isopropylpyrazole-4-carboxamide, isomer 2], the EC50 in assay [1] is under 0.1 µM. In assay [2], the IC50 is under 0.1 µM.

`CC(C(=O)Nc1cc(C(C)(C)C(F)(F)F)no1)c1ccc(-c2nn(C(C)C)c(N)c2C(N)=O)cn1` (single isomer, unassigned; isomer 2) [Example 90, 5-Amino-1-isopropyl-3-[6-[1-methyl-2-oxo-2-[[3-(2,2,2-trifluoro-1,1-dimethyl-ethyl)isoxazol-5-yl]amino]ethyl]-3-pyridyl]pyrazole-4-carboxamide, Isomer 2]: the EC50 in assay [1] was under 0.1 µM. The IC50 in assay [2] was under 0.1 µM.

For the molecule `CC(C(=O)Nc1cc(C(C)(C)C(C)(F)F)on1)c1ccc(-c2nn(C(C)C)c(N)c2C(N)=O)nc1` (single isomer, unassigned; isomer 2) [Example 70, 5-Amino-3-[5-(1-[[5-(3,3-difluoro-2-methylbutan-2-yl)-1,2-oxazol-3-yl]carbamoyl]ethyl)pyridin-2-yl]-1-isopropylpyrazole-4-carboxamide, Isomer 2], the EC50 in assay [1] was under 0.1 µM. Moreover, the IC50 in assay [2] is under 0.1 µM.

On to `CC(C(=O)Nc1cc(C(C)(C)CC(F)(F)F)on1)c1ccc(-c2nn(C(C)C)c(N)c2C(N)=O)nc1` (single isomer, unassigned; isomer 2) [Example 68, 5-Amino-1-isopropyl-3-(5-(1-oxo-1-((5-(4,4,4-trifluoro-2-methylbutan-2-yl)isoxazol-3-yl)amino)propan-2-yl)pyridin-2-yl)-1H-pyrazole-4-carboxamide, Isomer 2], for which the EC50 in assay [1] was under 0.1 µM. In addition, the IC50 in assay [2] is under 0.1 µM.

For `CC(C(=O)Nc1cc(C(C)(C)C(F)(F)F)on1)c1ccc(-c2nn(C(C)C)c(N)c2C(N)=O)nc1` (single isomer, unassigned; isomer 2) [Example 64, 5-Amino-1-isopropyl-3-[5-(1-[[5-(1,1,1-trifluoro-yl)-1,2-oxazol-3-2-methylpropan-2-yl]carbamoyl]ethyl)pyridin-2-yl]pyrazole-4-carboxamide, Isomer 2], in assay [1], the EC50 is under 0.1 µM. In assay [2], the IC50 was under 0.1 µM.
